84 compounds from ChEMBL document CHEMBL1155460, “Prediction of acetylcholinesterase inhibitors and characterization of correlative molecular descriptors by machine learning methods” (Eur J Med Chem, 2010) can be followed below.

Each structure is given as a SMILES string.

The target in the assay is Acetylcholinesterase (Homo sapiens, UniProt P22303).
Chain of Acetylcholinesterase (P22303 whole entry): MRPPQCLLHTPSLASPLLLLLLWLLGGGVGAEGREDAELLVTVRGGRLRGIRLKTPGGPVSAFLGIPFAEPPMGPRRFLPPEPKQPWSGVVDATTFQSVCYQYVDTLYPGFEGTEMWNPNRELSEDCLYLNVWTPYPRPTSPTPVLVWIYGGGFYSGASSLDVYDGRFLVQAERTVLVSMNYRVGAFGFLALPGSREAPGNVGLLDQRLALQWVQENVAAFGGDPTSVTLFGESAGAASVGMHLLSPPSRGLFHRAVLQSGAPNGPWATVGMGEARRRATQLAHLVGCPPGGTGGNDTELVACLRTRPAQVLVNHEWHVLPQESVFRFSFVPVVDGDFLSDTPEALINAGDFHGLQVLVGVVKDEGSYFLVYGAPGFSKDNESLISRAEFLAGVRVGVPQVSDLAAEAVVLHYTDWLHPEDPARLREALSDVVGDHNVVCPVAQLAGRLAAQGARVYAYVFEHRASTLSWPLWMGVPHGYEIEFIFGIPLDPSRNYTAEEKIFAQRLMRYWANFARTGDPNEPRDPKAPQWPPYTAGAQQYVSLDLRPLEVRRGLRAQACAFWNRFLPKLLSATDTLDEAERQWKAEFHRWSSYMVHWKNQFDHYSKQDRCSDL
With `O=C(NCCCCCCCNc1c2c(nc3cc(Cl)ccc13)CCCC2)c1n[nH]c2ccccc12`, half-maximal inhibition (IC50) was put at 0.095 µM.

For the compound `CN(C)C(=O)Nc1cccc2n1cc(-c1ccc(OC(=O)N(C)C)cc1)[n+]2C`, the IC50 is 1.6 µM.

With `CCCCCCCNC(=O)Oc1ccc2c(c1)[C@]1(C)CCN(Cc3ccccc3)[C@@H]1C2`, the IC50 was 0.506 µM.

Compound `CN1CCCc2ccc(C(=O)CCC3CCN(Cc4ccccc4)CC3)cc21` gave a half-maximal inhibitory concentration (IC50) of 0.036 µM.

In turn, `c1ccc(-c2cnc(NCN3CCCCC3)nc2)cc1` registered a concentration for half-maximal inhibition (IC50) of 100 µM.

Consider `O=C1c2ccccc2NCN1CCC1CCN(Cc2ccccc2)CC1`, for which the IC50 came out at 0.8 µM.

Turning to `CC(=O)N(CCC1CCN(Cc2ccccc2)CC1)c1ccccc1`, half-maximal inhibition (IC50) required 0.052 µM.

`COc1ccc2c(c1)C(=O)N(CCC1CCN(Cc3ccccc3)CC1)C2=O` displayed a 50% inhibitory concentration (IC50) of 0.008 µM.

Compound `CN(C)CCCCCCCCCCNc1c2c(nc3ccccc13)CCCC2` gave a 50% inhibitory concentration (IC50) of 0.045 µM.

With `c1ccc(-c2ccc(NCN3CCCCC3)nc2)cc1`, half-maximal inhibition (IC50) was put at 13 µM.

In turn, `O=C(Nc1cccc(C2=NCCN2)c1)Nc1cccc(C2=NCCN2)c1` [IMIDOCARB] showed an IC50 of 0.59 µM.

`CN(C)C(=O)Oc1cccc(-c2cn3c(C(F)(F)F)cccc3[n+]2C)c1`: the midpoint of inhibition, the IC50, lay at 33.6 µM.

Take `O=C1c2ccc([N+](=O)[O-])cc2C(=O)N1C1CCN(Cc2ccccc2)CC1`: the IC50 was 27 µM.

On to `Fc1ccc2c(NCCCCCCCCNc3c4c(nc5cc(F)ccc35)CCCC4)c3c(nc2c1)CCCC3`, for which the IC50 stood at 0.0007 µM.

As for `CN(C)c1ccc(-c2c3cc(O)c(=O)cc-3oc3cc(O)c(O)cc23)cc1`, the half-inhibitory concentration (IC50) was 22 µM.

As to `CCc1cc(=NCCC2CCN(Cc3ccccc3)CC2)[nH]nc1-c1ccccc1`, 0.027 µM corresponded to half-maximal inhibition (IC50).

`Clc1ccc2c(NCCCCCCNc3c4c(nc5cc(Cl)ccc35)CCCC4)c3c(nc2c1)CCCC3` gave a half-inhibitory concentration (IC50) of 0.0006 µM.

Regarding `O=C(CCC1CCN(Cc2ccc(F)cc2)CC1)c1ccc2c(c1)NCCCC2`, half-maximal inhibition (IC50) required 0.393 µM.

As to `CN(CCCNC(=O)CCc1c[nH]c2ccccc12)CCCNc1c2c(nc3cc(Cl)ccc13)CCCC2`, the 50% inhibitory concentration (IC50) is 0.0029 µM.

`COc1ccc(CN2CCC(CCN3C(=O)c4ccc([N+](=O)[O-])cc4C3=O)CC2)cc1`: inhibition was half-maximal at 0.44 µM (IC50).

`CN(C)C(=O)Oc1ccc(-c2cn3c(NC=O)cccc3[n+]2C)cc1` gave an IC50 of 1.2 µM.

The compound `CCCCCCNC(=O)Oc1cccc(CN(C)CCCCCOc2ccc3c(=O)c4ccccc4oc3c2)c1` had an IC50 of 0.1 µM.

As to `CN(C)C(=O)Oc1ccc(-c2cn3c(C(F)(F)F)cccc3[n+]2C)cc1`, the IC50 came out at 10 µM.

As for `CN1CCCCc2ccc(C(=O)CCC3CCN(Cc4ccccc4)CC3)cc21`, half-maximal inhibition (IC50) was put at 0.081 µM.

`CNC(=O)Oc1cccc(CN(C)CCCCCCCOc2ccc3c(c2)O/C(=C\c2cccc4ccccc24)C3=O)c1` had a concentration for half-maximal inhibition (IC50) of 0.00209 µM.

`CCCCCCNC(=O)Oc1ccc2c(c1)[C@]1(C)CCN(CCC)[C@@H]1C2` gave an IC50 of 0.062 µM.

Compound `Nc1c2c(nc3ccccc13)CCCCC2` had an IC50 of 0.039 µM.

`c1ccc2c(NCCCCCCCCCCNc3ccncc3)c3c(nc2c1)CCCC3` returned an IC50 of 0.176 µM.

`CCCCCCCNC(=O)Oc1ccc2c(c1)C1CCN(CCC)C1C2` (centres undefined): half-maximal inhibition (IC50) was put at 0.629 µM.

Consider `CCCCCCNC(=O)Oc1cccc(CN(CCC)CCCOc2ccc3c(=O)c4ccccc4oc3c2)c1`, for which half-maximal inhibition (IC50) was put at 0.4 µM.

The compound `Cc1nc(N)ncc1-c1nnnn1-c1ccc(-c2ccccc2)cc1` displayed an IC50 of 27 µM.

`CN(CCCNc1ccc(-c2ccccc2)nn1)Cc1ccccc1` registered a concentration for half-maximal inhibition (IC50) of 13 µM.

Regarding `CCCCNC(=O)Oc1ccc2c(c1)[C@]1(C)CCN(CC)[C@@H]1C2`, inhibition was half-maximal at 0.09 µM (IC50).

The compound `C[n+]1c(-c2ccccc2)cn2cc(C(N)=O)ccc21` yielded an IC50 of 9.5 µM.

In turn, `OCc1cc(-c2ccccc2)nnc1NCCN1CCOCC1` came in with an IC50 of 440 µM.

`O=C(CCOCCc1c[nH]c2ccccc12)NCCCCCCCNc1c2c(nc3cc(Cl)ccc13)CCCC2` showed an IC50 of 0.003 µM.

In turn, `CC12CCC(c3c1nc1ccccc1c3N)C2(C)C` (centres undefined) showed an IC50 of 110 µM.

`CCCc1cc(=NCCC2CCN(Cc3ccccc3)CC2)[nH]nc1-c1ccccc1` gave an IC50 of 0.061 µM.

Turning to `O=C1c2cccnc2C(=O)N1CCC1CCN(Cc2ccccc2)CC1`, the IC50 was 0.013 µM.

The compound `CN(C)C(=O)Oc1ccc(-c2cn3c(Cl)cccc3[n+]2C)cc1` came in with an IC50 of 12.6 µM.

Take `CC(=O)Nc1cccc2n1cc(-c1ccc(OC(=O)N(C)C)cc1)[n+]2C`: the 50% inhibitory concentration (IC50) was 0.7 µM.

On to `c1ccc2c(NCCCCCCNc3c4c(nc5ccccc35)CCCC4)c3c(nc2c1)CCCC3`, for which the IC50 amounted to 0.0014 µM.

On to `CCCNC(=O)Oc1ccc2c(c1)[C@]1(C)CCN(CC)[C@@H]1C2`, for which the midpoint of inhibition, the IC50, lay at 0.154 µM.

Consider `O=C(CCC1CCN(Cc2cccc(Cl)c2)CC1)c1ccc2c(c1)NCCCC2`, for which it took 0.333 µM to reach half-maximal inhibition (IC50).

`COc1ccc(/N=C/c2cn(-c3ccc(OC)cc3)cc2/C=N/c2ccc(OC)cc2)cc1` had an IC50 of 14 µM.

In turn, `CN(C)CCCCCCCCCCCCNc1c2c(nc3ccccc13)CCCC2` yielded an IC50 of 0.264 µM.

With `CN(C)CCCCCCCCNc1c2c(nc3ccccc13)CCCC2`, the concentration for half-maximal inhibition (IC50) is 0.047 µM.

`O=C1c2ccccc2C(=O)N1CCC1CCN(Cc2ccccc2)CC1`: inhibition was half-maximal at 0.08 µM (IC50).

Regarding `O=C(CCC1CCN(Cc2cccc(F)c2)CC1)c1ccc2c(c1)CCN2`, inhibition was half-maximal at 0.016 µM (IC50).

For the compound `Nc1c2ccccc2nc2c1cnc1cc(Cl)ccc12`, the IC50 worked out at 1000 µM.

In the case of `Nc1c2c(nc3ccccc13)-c1ccccc1CC2`, half-maximal inhibition (IC50) required 37 µM.

The compound `CCN1CCCC1CNc1ccc(-c2ccccc2)nn1` (centres undefined) registered a half-maximal inhibitory concentration (IC50) of 62 µM.

`NCCCCCCCCCCCCNc1c2c(nc3ccccc13)CCCC2` returned a concentration for half-maximal inhibition (IC50) of 0.18 µM.

As for `NCCCCCCCCNc1c2c(nc3ccccc13)CCCC2`, the IC50 turned out to be 0.089 µM.

With `c1ccc(-c2ccc(NCCN3CCOCC3)nn2)cc1`, the IC50 came out at 1000 µM.

`CCN1CCC2c3cc(OC(=O)NC)ccc3CC21` (centres undefined) came in with an IC50 of 0.253 µM.

`c1ccc(C2=NNC(NCN3CCCCC3)=NC2)cc1` registered a half-inhibitory concentration (IC50) of 47 µM.

Consider `CNC(=O)Oc1cccc(CN(C)CCCCCCCOc2ccc3c(c2)OC/C(=C/c2cc(O)c(O)c(O)c2)C3=O)c1`, for which half-maximal inhibition (IC50) required 0.00981 µM.

The compound `CCCc1cc(N2CCC=N2)ccc1C(=O)ON=C(N)c1ccc(C(F)(F)F)cc1` registered an IC50 of 13 µM.

With `Nc1c2c(nc3ccccc13)-c1ccccc1CCC2`, the IC50 was found to be 166 µM.

`Nc1c2c(nc3ccccc13)CCC2` returned a 50% inhibitory concentration (IC50) of 0.056 µM.

The compound `CN(CCOCCNC(=S)NC(=O)c1ccc(-c2ccccc2)cc1)Cc1ccccc1` registered an IC50 of 0.23 µM.

`O=C(CCC1CCN(Cc2ccccc2)CC1)c1ccc2c(c1)N(Cc1ccccc1)CC2`: the half-inhibitory concentration (IC50) came out at 0.853 µM.

For the compound `CC(Cc1ccc(O)cc1)C1CCC(C)C(c2ccc(O)cc2)C1` (centres undefined), the IC50 was determined as 0.62 µM.

Compound `CN(CCOCCCNC(=S)NC(=O)c1ccccc1)Cc1ccccc1` returned an IC50 of 1.1 µM.

The compound `O=C(c1ccccc1)N(CCC1CCN(Cc2ccccc2)CC1)c1ccccc1` gave an IC50 of 0.035 µM.

As for `COc1cccc(CN2CCC(CCC(=O)c3ccc4c(c3)CCN4)CC2)c1`, it took 2.68 µM to reach half-maximal inhibition (IC50).

For the compound `CN(CCCCNc1ccc(-c2ccccc2)nn1)Cc1ccccc1`, the IC50 was 11 µM.

The compound `Cc1cc(-c2ccc(Cl)cc2)nnc1NCCN1CCOCC1` returned a half-maximal inhibitory concentration (IC50) of 34 µM.

The compound `CN(CCOCCNC(=S)Nc1cccc2ccccc12)Cc1ccccc1` came in with an IC50 of 10 µM.

Consider `Nc1c2c(nc3ccccc13)-c1ccccc1NCC2`, for which the IC50 worked out at 69.4 µM.

`COc1cc2c(cc1OC)CC(CC1CCN(c3ccccc3)CC1)=C2` showed a 50% inhibitory concentration (IC50) of 4.4 µM.

`Cc1cccc(CN2CCC(CCC(=O)c3ccc4c(c3)NCCCC4)CC2)c1` had an IC50 of 0.224 µM.

With `COc1ccccc1CN1CCC(CCC(=O)c2ccc3c(c2)NCCCC3)CC1`, the midpoint of inhibition, the IC50, lay at 2.65 µM.

For `CCCCCCCNC(=O)Oc1ccc2c(c1)[C@]1(C)CCN(C)[C@@H]1C2`, half-maximal inhibition (IC50) was put at 0.114 µM.

Turning to `O=C(/C=C/c1c[nH]c2ccccc12)NCCCCCCNc1c2c(nc3cc(Cl)ccc13)CCCC2`, it took 0.018 µM to reach half-maximal inhibition (IC50).

`CN(C)C(=O)Oc1cccc(-c2cn3ccccc3[n+]2C)c1` gave an IC50 of 7.1 µM.

Regarding `O=[N+]([O-])c1ccc2c(Nc3ccccc3)c3c(nc2c1)CCCC3`, the IC50 came to 4.8 µM.

For `c1ccc(CN2CCC(Nc3ccc(-c4ccccc4)nn3)CC2)cc1`, the IC50 worked out at 65 µM.

The compound `CN1CCCc2cc(C(=O)CCC3CCN(Cc4ccccc4)CC3)ccc21` gave an IC50 of 0.024 µM.

The compound `COc1cccc2n1cc(-c1cccc(OC(=O)N(C)C)c1)[n+]2C` displayed an IC50 of 20.5 µM.

In turn, `CC(=O)N(CCC1CCN(Cc2ccccc2)CC1)c1ccncc1` returned an IC50 of 0.108 µM.

`O=C(CCC1CCN(Cc2ccccc2F)CC1)c1ccc2c(c1)CCN2` came in with an IC50 of 0.043 µM.

For `O=C(NCCCCCNc1c2c(nc3cc(Cl)ccc13)CCCC2)c1c[nH]c2ccccc12`, the IC50 was 0.18 µM.
